In US10280183B2, “Therapeutic agent for treating tumors” (THE RESEARCH FOUNDATION FOR THE STATE UNIVERSITY OF NEW YORK, priority 2014, dated 2019):
Read-outs that look alike come from different tables or passages of the source.

What was measured:
[1] = test system: MX-1 human breast carcinoma cell line (BR+); assay: In vitro cytotoxicity, standard MTT assay, MX-1 cells; type: cell-based
Experimental: (§1) Cell Culture. All cell lines were obtained from ATCC unless otherwise noted. Cells were cultured in RPMI-1640 cell culture medium (Gibco) or DMEM (Gibco), both supplemented with 5% (v/v) heat-inactivated fetal bovine serum (FBS), 5% (v/v) NuSerum, and 1% (v/v) penicillin and streptomycin (PenStrep) at 37° C. in a humidified atmosphere with 5% CO2. MX-1 and ID8 (obtained from University of Kansas Medical Center) cells were cultured as monolayers on 100 mm tissue culture dishes in supplemented RPMI-1640. L1210 and L1210FR (a gift from Dr. Gregory Russell-Jones, Access Pharmaceuticals Pty Ltd., Australia) were grown as a suspension in supplemented RPMI-1640, and WI-38 as a monolayer in supplemented DMEM. Cells were harvested, collected by centrifugation at 850 rpm for 5 min, and resuspended in fresh culture medium. Cell cultures were routinely divided by treatment with trypsin (TrypLE, Gibco) as needed every 2-4 days and collected by centrifugation at 850 rpm for 5 min, and resuspended in fresh cell culture medium, containing varying cell densities for subsequent biological experiments and analysis.
(§2) In Vitro Cytotoxicity Assays. […] Cells were harvested, collected, and resuspended in 100 μL cell culture medium at concentrations ranging from 0.5-1.5×10^4 cells per well in a 96-well plate. For adhesive cell types, cells were allowed to descend to the bottom of the wells overnight, and fresh medium was added to each well upon removal of the old medium.
(§3) For the MTT assay (Table 1 and the Assay 1 in Table 2) of paclitaxel, taxoid 3 and conjugates 1 and 15, cells were resuspended in 200 μL medium with 8,000 to 10,000 cells per well of a 96-well plate and incubated at 37° C. for 24 h before drug treatment. In DMSO stock solutions, each drug or conjugate was diluted to a series of concentrations in cell culture medium to prepare test solutions. After removing the old medium, these test solutions were added to the wells in the 96-well plate to give the final concentrations ranging from 0.5 to 5,000 nM (100 μL), and the cells were subsequently cultured at 37° C. for 48 h (Table 1) or 72 h (Table 2, Assay 1). For the leukemia cell lines, L1210 and L1210FR, cells were harvested, collected, and resuspended in the test solutions ranging from 0.5 to 5,000 nM (100 μL) at 0.5 to 0.8 ×10^4 cells per well in a 96-well plate and subsequently incubated at 37° C. for 48 h (Table 1) or 72 h (Table 2, Assay 1).
(§4) In the Assay 2 (Table 2), cells were incubated with 1 or 15 at 37° C. for 24 h, and the drug medium was removed. Then, treated cells were thoroughly washed with PBS, and GSH-OEt (6 equiv. to conjugate) in cell culture medium (200 μL) was added to the wells. These cells were incubated at 37° C. for an additional 48 h, i.e., the total incubation time was 72 h.
(§5) In the Assay 3 (Table 2), cells were incubated with 1 or 15 at 37° C. for 24 h, and GSH-OEt (6 equivalents) in cell culture medium (100 μL) was directly added to the wells. These cells were incubated at 37° C. for an additional 48 h, i.e. the total incubation time was also 72 h.
(§6) For all experiments, after removing the test medium, fresh solution of MTT in PBS (40 μL of 0.5 mg MTT/mL) was added to the wells, and the cells were incubated at 37° C. for 3 h. The MTT solution was then removed, and the resulting insoluble violet formazan crystals were dissolved in 0.1 N HCl in isopropanol with 10% Triton X-100 (40 μL) to give a violet solution. The spectrophotometric absorbance measurement of each well in the 96-well plate was run at 570 nm using a Labsystems Multiskan Ascent microplate reader. The IC50 values and their standard errors were calculated from the viability-concentration curve using Four Parameter Logistic Model of Sigmaplot. The concentration of DMSO per well was ≤1% in all cases. Each experiment was run in triplicate.

[2] = test system: ID8 murine ovarian carcinoma cell line (BR+); assay: In vitro cytotoxicity, standard MTT assay, ID8 cells; type: cell-based
Experimental: as §1, §2
as §3, with “After removing the old medium, these test solutions were added to the wells in the 96-well plate to give the final concentrations ranging from 0.5 to 5,000 nM (100 μL), and the cells were subsequently cultured at 37° C. for 48 h (Table 1) or 72 h (Table 2, Assay 1).” left out
as §6

[3] = test system: L1210FR murine lymphocytic leukemia cell line (BR+); assay: In vitro cytotoxicity, standard MTT assay, L1210FR cells; type: cell-based
Experimental: as §1, §2, §3, §4, §5, §6

[4] = test system: L1210 murine lymphocytic leukemia cell line (BR−); assay: In vitro cytotoxicity, standard MTT assay, L1210 cells; type: cell-based
Experimental: as §1, §2, §3, §6

[5] = test system: WI38 human lung fibroblast cell line (BR−); assay: In vitro cytotoxicity, standard MTT assay, WI38 cells; type: cell-based; settings: 72 h drug incubation; read-out: IC50, WI38 (normal lung)
Experimental: as §1, §2, §3, §4, §5, §6

MCF-7 (breast) = assay: In vitro cytotoxicity, standard MTT assay, MCF-7 cells; type: cell-based; settings: 72 h drug incubation
Experimental: as §2
For the MTT assay (Table 1 and the Assay 1 in Table 2) of paclitaxel, taxoid 3 and conjugates 1 and 15, cells were resuspended in 200 μL medium with 8,000 to 10,000 cells per well of a 96-well plate and incubated at 37° C. for 24 h before drug treatment. In DMSO stock solutions, each drug or conjugate was diluted to a series of concentrations in cell culture medium to prepare test solutions. […]
For all experiments, after removing the test medium, fresh solution of MTT in PBS (40 μL of 0.5 mg MTT/mL) was added to the wells, and the cells were incubated at 37° C. for 3 h. […] The spectrophotometric absorbance measurement of each well in the 96-well plate was run at 570 nm using a Labsystems Multiskan Ascent microplate reader. The IC50 values and their standard errors were calculated from the viability-concentration curve using Four Parameter Logistic Model of Sigmaplot. […]

[6] = test system: L1210FR murine lymphocytic leukemia cell line (BR+); assay: In vitro cytotoxicity, standard MTT assay, L1210FR cells; type: cell-based; settings: 24 hour incubation; read-out: IC50, L1210 FR (leuk.)
[7] = test system: WI38 human lung fibroblast cell line (BR−); assay: In vitro cytotoxicity, standard MTT assay, WI38 cells; type: cell-based; settings: 24 hour incubation; read-out: IC50, WI38 (normal lung)
[8] = as above; type: cell-based, human; settings: human
Experimental: as §1, §2, §3, §4, §5, §6

[9] = test system: BR+ cancer cell lines (L1210FR, MX-1, ID8); assay: MTT cytotoxicity summarised over BR+ cancer cell lines; type: cell-based
Experimental: as §2, §3, §4, §5, §6
Thus, the Assay 1 results provide the potency of conjugates in the same manner as that for the first assay summarized in Table 1, but for longer incubation time (48 h vs. 72 h). […] Accordingly, this assay may mimic the corresponding in vivo assay conditions, wherein non-internalized conjugates would be removed from the tumor, redistributed and eventually excreted. […] Thus, in principle, the results (IC50 values) in this assay should be very close to those for the control using taxoid 3 (entry 2).

With CC[C@@]1(OC(=O)Cc2ccccc2SSC(C)CCC(=O)NCCOCCOCCOCCn2cc(CNc3nc(NCCNC(=O)CCC(C)SSc4ccccc4CC(=O)O[C@@H](C(=O)O[C@H]4C[C@@]5(O)[C@@H](OC(=O)c6ccccc6)[C@@H]6[C@]7(OC(C)=O)CO[C@@H]7C[C@H](O)[C@@]6(C)C(=O)[C@H](OC(=O)C6CC6)C(=C4C)C5(C)C)[C@H](C=C(C)C)NC(=O)OC(C)(C)C)nc(NCCOCCOCCOCCNC(=O)CCCC[C@@H]4SC[C@@H]5NC(=O)N[C@@H]54)n3)nn2)C(=O)OCc2c1cc1n(c2=O)Cc2cc3ccccc3nc2-1 (stereo partly shown) [Compound 116] the IC50 ([1]; 24 hour incubation, read-out: IC50, MX-1 (breast)) was 9.8 nM, the IC50 ([1]; 72 h drug incubation, read-out: IC50, MX-1 (breast)) was 51.7 nM and the IC50 ([2]; 24 hour incubation, read-out: IC50, ID8 (ovarian)) was 5.66 nM. It also gave an IC50 ([2]; 72 h drug incubation, read-out: IC50, ID8 (ovarian)) of 23.4 nM, an IC50 ([3]; 72 h drug incubation, read-out: IC50, L1210FR (leuk.)) of 39.1 nM and an IC50 ([4]; 72 h drug incubation, read-out: IC50, L1210 (leuk.)) of 690 nM. The IC50 [5] was 742 nM, the IC50 (MCF-7 (breast)) was 19 nM and the IC50 [6] was 7.4 nM. For the same molecule, the IC50 [7] was 705 nM.
For CC(=O)O[C@@]12CO[C@@H]1C[C@H](O)[C@@]1(C)C(=O)[C@H](OC(=O)C3CC3)C3=C(C)[C@@H](OC(=O)[C@H](OC(=O)Cc4ccccc4SSC(C)C(=O)NCCNc4nc(NCCOCCOCCOCCNC(=O)CCCC[C@@H]5SC[C@@H]6NC(=O)N[C@@H]65)nc(NCc5cn(CCOCCOCCOCCF)nn5)n4)[C@H](C=C(C)C)NC(=O)OC(C)(C)C)C[C@@](O)([C@@H](OC(=O)c4ccccc4)[C@H]21)C3(C)C (stereo partly shown) [Conjugate 1], the IC50 ([1]; Homo sapiens, Breast carcinoma cell, 48 h, read-out: Cytotoxicity IC50, MX-1) was 21.2 ± 4.6 nM, the IC50 ([1]; Homo sapiens, Breast carcinoma cell, 72 h, read-out: Cytotoxicity IC50, MX-1, Assay 1) was 6.27 ± 2.06 nM and the IC50 ([1]; Homo sapiens, Breast carcinoma cell, read-out: Cytotoxicity IC50, MX-1, Assay 2) was 4.79 ± 0.12 nM. It also gave an IC50 ([1]; Homo sapiens, Breast carcinoma cell, read-out: Cytotoxicity IC50, MX-1, Assay 3) of 2.56 ± 0.15 nM, an IC50 ([2]; Mus musculus, Ovarian carcinoma cell, 48 h, read-out: Cytotoxicity IC50, ID8) of 6.62 ± 0.86 nM and an IC50 ([3]; Mus musculus, 48 h, read-out: Cytotoxicity IC50, L1210FR) of 14.7 ± 4 nM. For the same molecule, the IC50 ([3]; Mus musculus, 72 h, read-out: Cytotoxicity IC50, L1210FR, Assay 1) was 10.2 ± 3 nM, the IC50 ([3]; Mus musculus, read-out: Cytotoxicity IC50, L1210FR, Assay 2) was 6.6 ± 3.96 nM and the IC50 ([3]; Mus musculus, read-out: Cytotoxicity IC50, L1210FR, Assay 3) was 2.79 ± 1.43 nM. For the same molecule, the IC50 ([4]; Mus musculus, L1210, 48 h, read-out: Cytotoxicity IC50, L1210) was 593 nM, the IC50 at 72 h ([8]; 24 h incubation, PBS wash, then GSH-OEt (6 equiv.) and additional 48 h, read-out: Cytotoxicity IC50, WI38, Assay 2) was 615 ± 97 nM and the IC50 at 72 h ([8]; 24 h incubation, then GSH-OEt (6 equiv.) added without washing, additional 48 h, read-out: Cytotoxicity IC50, WI38, Assay 3) was 12.9 ± 4.3 nM. It also gave an IC50 at 72 h ([8]; 72 h incubation, no GSH-OEt, read-out: Cytotoxicity IC50, WI38, Assay 1) of 682 ± 110 nM, an IC50 at 48 h ([8]; incubation at 37° C. for 48 h) of 709 nM and an IC50 ([9]; 24 h, PBS wash, GSH-OEt, additional 48 h, range over conjugates 1 and 15, read-out: IC50 range against BR+ cancer cells (MX-1, L1210FR), Assay 2) of 3.85 to 6.6 nM. For the same molecule, the IC50 ([9]; 48 h, read-out: Cytotoxicity IC50, range over L1210FR, MX-1 and ID8) was 6 to 21 nM, the “Cancer cell selectivity (BR-specificity), BR+ cancer cells vs BR− WI38 cells” value ([9]; Assay 2) was “two-orders of magnitude difference” and the IC50 ([9]; GSH-OEt added after 24 h without PBS washing, additional 48 h, range over conjugates 1 and 15, read-out: IC50 range against MX-1 and L1210FR, third assay (Assay 3)) was 2.4 to 2.92 nM.
